Key:
[1] = target: T1, ERβ (Homo sapiens, UniProt Q92731); conditions: in the presence of ERβ
[2] = target: T1, ERβ; experiment: Repression of TNF-α activation of TNF-RE tkLuc in U2OS cells with ERβ; assay type: cell-based; design: expressed in transfected cells
[3] = tested on: TNF-RE tkLuc; experiment: Effect of antiestrogens on TNF-RE tkLuc; assay type: cell-based, human; conditions: for effect on the repression induced by E2: TNF-RE tkLuc; for activation of TNF-RE tkLuc: antiestrogens, in contrast to E2
[4] = target: T1, ERβ; experiment: ERE-tk-Luc luciferase activation in U2OS cells with ERβ; assay type: cell-based; design: expressed in transfected cells; host or cells: U2OS (human osteosarcoma); conditions: competition
[5] = tested on: estrogen receptor-positive breast cancer; conditions: five years of therapy; cited from earlier work
[6] = tested on: primary invasive breast cancer; conditions: women at high risk for breast cancer; cited from earlier work

T1 sequence (Q92731 whole entry): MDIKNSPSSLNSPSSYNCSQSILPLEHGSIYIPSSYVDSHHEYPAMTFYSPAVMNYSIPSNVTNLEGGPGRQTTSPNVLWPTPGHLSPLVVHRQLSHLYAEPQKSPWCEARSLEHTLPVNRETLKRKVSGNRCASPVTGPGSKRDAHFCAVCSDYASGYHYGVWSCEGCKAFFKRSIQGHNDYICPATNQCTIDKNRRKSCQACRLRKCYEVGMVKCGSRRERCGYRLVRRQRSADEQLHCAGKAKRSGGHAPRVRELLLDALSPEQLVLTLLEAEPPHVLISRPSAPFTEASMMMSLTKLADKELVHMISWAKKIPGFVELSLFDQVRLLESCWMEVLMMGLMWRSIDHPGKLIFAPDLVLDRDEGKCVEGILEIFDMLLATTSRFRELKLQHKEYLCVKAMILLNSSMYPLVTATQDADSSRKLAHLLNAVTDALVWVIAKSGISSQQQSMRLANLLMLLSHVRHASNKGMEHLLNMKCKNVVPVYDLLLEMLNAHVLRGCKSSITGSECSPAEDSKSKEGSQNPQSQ

Structure (SMILES)	repression of TNF-α activation of TNF-RE tkLuc [1]	repression of TNF-α activation of TNF-RE [2] [%]	effect on the repression induced by E2 [3]	activation of TNF-RE tkLuc [3] [fold]	stimulatory effect of Pueraria lobata on the ERE with ERβ in the presence of the SERM antagonist (FIG. 6) [4]	reduction of mortality from breast cancer [5] [%]	reduction of the risk of recurrences [5] [%]	reduction of the risk of primary invasive breast cancer [6] [%]
C[C@]12CC[C@@H]3c4ccc(O)cc4CC[C@H]3[C@@H]1CC[C@@H]2O [E2, estradiol]	60-80%	100						
C[C@]12CC[C@@H]3c4ccc(O)cc4C[C@@H](CCCCCCCCC[S+]([O-])CCCC(F)(F)C(F)(F)F)[C@H]3[C@@H]1CC[C@@H]2O (stereo partly drawn) [ICI 182, 780]			abolished the repression induced by E2	2				
O=C(c1ccc(OCCN2CCCCC2)cc1)c1c(-c2ccc(O)cc2)sc2cc(O)ccc12 [raloxifene]			abolished the repression induced by E2	2	inhibited			
CC/C(=C(\c1ccccc1)c1ccc(OCCN(C)C)cc1)c1ccccc1 [tamoxifen]			abolished the repression induced by E2	2		22	42	49

Reference: patent US20090068299A1
